Measured values taken from US20240099991A1, “HOST DIRECTED DRUG COMBINATIONS FOR TREATMENT OF VIRAL INFECTIONS” (priority 2021, published 2024).
Like-named read-outs stand apart in the source and are kept apart here.

Assays:
Vero E6 cells [1] = system: Vero E6 cells
SARS-CoV-2 [2] = type: cell-based
SARS-CoV-2 [3] = assay: In vivo efficacy against SARS-CoV-2 in Syrian Golden Hamster Model (lung viral load); settings: oral, once daily for 3 days (1-3 DPI), Atovaquone 200 mg/kg, Cepharantine 8 mg/kg, combination 200 + 8 mg/kg
Excerpt: In vivo efficacy evaluation of Atovaquone and Cepharanthine alone and in combination against SARS-CoV-2 in Syrian Golden Hamster Model [Study Protocol Reference:) Syrian hamsters as a small animal model for SARS-CoV-2 infection and countermeasure development. Masaki Imai et al., PNAS 2020, 117(28)16587-16595]
Data Analysis One way ANOVA-Dunnett's multiple comparison test

Vero E6 cells [4] = assay: Cytotoxicity of test agents in the Vero E6 checkerboard assay; settings: Experiment 2, highest concentration tested

## O=C(Nc1ccc([N+](=O)[O-])cc1Cl)c1cc(Cl)ccc1O [Niclosamide, niclosamide]
Vero E6 cells [1]
  cytotoxicity: non cytotoxic
SARS-CoV-2 [2]; 0.12 to 0.37 micromolar, without the addition of atovaquone
  antiviral efficacy: inactive
SARS-CoV-2 [2]; Niclosamide 0.12 micromol alone (Atovaquone 0.00)
  inhibition of virus induced cytopathic effects (CPE): 11.90%
SARS-CoV-2 [2]; Niclosamide 0.37 micromol alone (Atovaquone 0.00)
  inhibition of virus induced cytopathic effects (CPE): 9.52%
SARS-CoV-2 [2]; Niclosamide 1.10 micromol alone (Atovaquone 0.00)
  inhibition of virus induced cytopathic effects (CPE): 16.67%
SARS-CoV-2 [2]; concentrations ranging from 0.12 to 1,1 micro mol
  antiviral efficacy: non-efficacious

## O=C1C(O)=C([C@H]2CC[C@H](c3ccc(Cl)cc3)CC2)C(=O)c2ccccc21 [Atovaquone, atovaquone]
SARS-CoV-2 [3]
  Mean Difference (Log10PFU/lung), Infection Control vs. group: 0.74 Log10PFU/lung
SARS-CoV-2 [2]; 0.12-0.37, alone
  antiviral efficacy: inactive
SARS-CoV-2 [2]; Experiment 1, Atovaquone 0.12 micromol alone (Niclosamide 0.00)
  inhibition of virus induced cytopathic effects (CPE): 2.38%
SARS-CoV-2 [2]; Experiment 1, Atovaquone 0.37 micromol alone (Niclosamide 0.00)
  inhibition of virus induced cytopathic effects (CPE): 9.52%
SARS-CoV-2 [2]; Experiment 1, Atovaquone 1.10 micromol alone (Niclosamide 0.00)
  inhibition of virus induced cytopathic effects (CPE): 16.67%
SARS-CoV-2 [2]; Experiment 1, Atovaquone 3.30 micromol alone (Niclosamide 0.00)
  inhibition of virus induced cytopathic effects (CPE): 50.00%
SARS-CoV-2 [2]; Experiment 2, Atovaquone 0.12 micromol alone (Cepharanthine 0.00)
  inhibition of virus induced cytopathic effects (CPE): 2.38%
SARS-CoV-2 [2]; Experiment 2, Atovaquone 0.37 micromol alone (Cepharanthine 0.00)
  inhibition of virus induced cytopathic effects (CPE): 9.52%
SARS-CoV-2 [2]; Experiment 2, Atovaquone 1.10 micromol alone (Cepharanthine 0.00)
  inhibition of virus induced cytopathic effects (CPE): 16.67%
SARS-CoV-2 [2]; Experiment 2, Atovaquone 3.30 micromol alone (Cepharanthine 0.00)
  inhibition of virus induced cytopathic effects (CPE): 50.00%
SARS-CoV-2 [2]; concentration of 3.3 micro mol
  inhibits virus induced cytopathic effects (CPE): 50%

## COc1ccc2cc1Oc1ccc(cc1)C[C@H]1c3c(cc4c(c3Oc3cc5c(cc3OC)CCN(C)[C@@H]5C2)OCO4)CCN1C [Cepharanthine, cepharantine]
SARS-CoV-2 [3]
  Mean Difference (Log10PFU/lung), Infection Control vs. group: 0.42 Log10PFU/lung
Vero E6 cells [4]
  cytotoxicity: neither cepharantine nor atovaquone are cytotoxic
SARS-CoV-2 [2]; 0.04-0.12 micromole, alone
  antiviral efficacy: inactive
SARS-CoV-2 [2]; Cepharanthine 0.04 micromol alone (Atovaquone 0.00)
  inhibition of virus induced cytopathic effects (CPE): 7.14%
SARS-CoV-2 [2]; Cepharanthine 0.12 micromol alone (Atovaquone 0.00)
  inhibition of virus induced cytopathic effects (CPE): 9.52%
SARS-CoV-2 [2]; Cepharanthine 0.37 micromol alone (Atovaquone 0.00)
  inhibition of virus induced cytopathic effects (CPE): 14.29%
SARS-CoV-2 [2]; Cepharanthine 1.10 micromol alone (Atovaquone 0.00)
  inhibition of virus induced cytopathic effects (CPE): 38.10%

## CCC(CC)COC(=O)[C@H](C)N[P@](=O)(OC[C@H]1O[C@@](C#N)(c2ccc3c(N)ncnn23)[C@H](O)[C@@H]1O)Oc1ccccc1 [Remdesivir]
SARS-CoV-2 [3]
  Mean Difference (Log10PFU/lung), Infection Control vs. group: 0.97 Log10PFU/lung
